The values below come from ChEMBL document CHEMBL1201862, “PubChem BioAssay data set” (2004).

Molecules are shown by their SMILES.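 Five concentrations, 48 hours, 96-well plates. The concentration for 50% growth inhibition is given as GI50.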 The source made the active and inactive calls. No stated cut-off is given here; in the data, active = GI50 up to about 1.1 µM and inactive = higher.

Holding throughout (experiment): growth of human tumour cells (NCI), 48 h
Experiment [1] deals with UACC-62.
Experiment [2] deals with HCT-15.
Experiment [3] has as its system SR.
The test system of experiment [4] is HOP-92.
For experiment [5], the system named is Malme-3M.
In experiment [6] the test system is TK-10.
Experiment [7] concerns HL-60.
Experiment [8] has as its system HCC 2998.
Experiment [9] has as its system A549.
Experiment [10] has as its system UACC-257.
Experiment [11] concerns M14.
Experiment [12] has as its system RXF 393.
Experiment [13] concerns NCI-H23.
Experiment [14] concerns NCI/ADR-RES.
Experiment [15] has as its system MDA-N.
Experiment [16] concerns NCI-H226.
The test system of experiment [17] is DU-145.
Experiment [18] concerns MCF7.
For experiment [19], the system named is BT-549.

Turning to `O=[N+]([O-])C1(CO)COC(CCc2ccccc2)OC1` (stereo not drawn), the GI50 in [1] was > 100 µM (inactive); in experiment [2], more than 100 µM; in experiment [3], > 100 µM (inactive); in experiment [4], 7.13 µM (inactive); in experiment [5], > 100 µM (inactive); in experiment [6], > 100 µM (inactive). Moreover, the GI50 in experiment [7], in experiment [8], in [9], in experiment [10], in experiment [11] and in experiment [12] was > 100 µM (inactive) throughout. Besides, the GI50 in [13] was > 100 µM (inactive).

For `CCOC(=O)/C(C(=S)NCc1ccccc1)=C(/N)N1CCCC1`, the GI50 was > 100 µM (inactive) in [1]; more than 100 µM in experiment [2]; > 100 µM (inactive) in experiment [3]; > 100 µM (inactive) in experiment [14]; > 100 µM (inactive) in experiment [15]; > 100 µM (inactive) in experiment [4]. Besides, the GI50 in experiment [5], in [6], in experiment [16], in [17], in [7] and in experiment [8] was > 100 µM (inactive) each time. Also, the GI50 in experiment [9], in [18], in experiment [10], in [11], in experiment [12] and in experiment [13] was > 100 µM (inactive) each time.

For `Cc1c2oc3c(C)cc(F)c(C(=O)NC4C(=O)NC(C(C)C)C(=O)N5CCCC5C(=O)N(C)CC(=O)N(C)C(C(C)C)C(=O)OC4C)c3nc-2c(C(=O)NC2C(=O)NC(C(C)C)C(=O)N3CCCC3C(=O)N(C)CC(=O)N(C)C(C(C)C)C(=O)OC2C)c(N)c1=O` (stereo not drawn), the GI50 in experiment [1] was 0.0617 µM (active); in experiment [2] it was 0.0805 µM; in [3], < 0.001 µM (active); in experiment [14], 4.65 µM (inactive); in experiment [15], 0.0024 µM (active); in experiment [4], 0.154 µM (active). The GI50 in experiment [5] is 0.00149 µM (active); in experiment [6], 0.224 µM (active); in experiment [16], 0.0234 µM (active); in [17], 0.115 µM (active); in [7], 0.00131 µM (active); in experiment [8], 0.109 µM (active). The GI50 in experiment [9] was 0.0148 µM (active); in experiment [18], < 0.001 µM (active); in experiment [10], 0.00395 µM (active); in experiment [11], 0.0826 µM (active); in [12], 0.106 µM (active); in experiment [13], 0.105 µM (active).

With `COc1ccc(C(=O)C(c2ccc(OC)cc2)C2(O)C(=O)Nc3c2ccc(Cl)c3C)cc1` (stereo not drawn), the GI50 in [1] is > 100 µM (inactive); in experiment [2] it was more than 100 µM; in experiment [5], > 100 µM (inactive); in experiment [6] it was > 100 µM (inactive); in [16] it was > 100 µM (inactive); in [7], > 100 µM (inactive). For the same compound, the GI50 in [8] was > 100 µM (inactive); in [9], > 100 µM (inactive); in experiment [10] it was 92.9 µM (inactive); in [11], > 100 µM (inactive); in [12] it was 94.2 µM (inactive); in experiment [13] it was > 100 µM (inactive).

On to `COc1ccc(/C=C2\N=C3NC(=O)C(N4CCOCC4)=C(N)N3C2=O)cc1`, for which the GI50 in [2] is more than 100 µM; in experiment [3] it was 29.9 µM (inactive); in [14], > 100 µM (inactive); in [15] it was > 100 µM (inactive); in [4] it was > 100 µM (inactive); in experiment [5], > 100 µM (inactive). The GI50 in experiment [6] is 53.7 µM (inactive); in [16] it was > 100 µM (inactive); in experiment [17] it was > 100 µM (inactive); in [7], 48.9 µM (inactive); in experiment [8], > 100 µM (inactive); in experiment [9], > 100 µM (inactive). The GI50 in experiment [18] was > 100 µM (inactive); in experiment [10], > 100 µM (inactive); in experiment [11] it was > 100 µM (inactive); in experiment [12], 46.7 µM (inactive); in [13], > 100 µM (inactive).

Turning to `CN1CCN(Cn2nc(COc3ccccc3Cl)n(/N=C/c3ccc(-c4ccc(Cl)cc4Cl)o3)c2=S)CC1`, the GI50 in experiment [2] was 24.2 µM; in experiment [3], 24.3 µM (inactive); in experiment [14] it was 21.7 µM (inactive); in [15] it was 23.5 µM (inactive); in experiment [4] it was 14.3 µM (inactive); in [6] it was 23.9 µM (inactive). Moreover, the GI50 in experiment [16] was 51.5 µM (inactive); in [17], 20 µM (inactive); in experiment [7], 24.8 µM (inactive); in experiment [8] it was 19.6 µM (inactive); in experiment [18], 19.6 µM (inactive); in [10] it was 34.8 µM (inactive). The GI50 in experiment [11] was 28.8 µM (inactive); in [12], 17.3 µM (inactive); in [13], 17.9 µM (inactive).

With `C/C=C(/C)C(=O)O[C@H]1C[C@@H]2[C@@H](O)c3occ(C)c3C[C@]2(C)[C@@H](C)C1`, the GI50 is 13.4 µM (inactive) in [1]; 18.7 µM in [2]; 14.2 µM (inactive) in experiment [3]; 14.2 µM (inactive) in experiment [14]; 18.7 µM (inactive) in experiment [15]; 17.4 µM (inactive) in experiment [4]. Besides, the GI50 is 15.8 µM (inactive) in experiment [5]; 17.6 µM (inactive) in [6]; 14.2 µM (inactive) in experiment [16]; 14.8 µM (inactive) in experiment [17]; 9.93 µM (inactive) in [7]; 16.6 µM (inactive) in experiment [8]. Besides, the GI50 was 20.9 µM (inactive) in experiment [18]; 11.1 µM (inactive) in [10]; 15.6 µM (inactive) in experiment [11]; 14.4 µM (inactive) in experiment [12]; 17.8 µM (inactive) in [13].

Take `CCN(CC)CC/N=c1\c2cc(OC)ccc2[nH]c2c([N+](=O)[O-])ccc(NCCN(CC)CC)c12`: the GI50 is 5.26 µM (inactive) in experiment [1]; 1.02 µM in [2]; 0.16 µM (active) in experiment [3]; 1.01 µM (active) in [14]; 1.12 µM (inactive) in experiment [15]; 1.83 µM (inactive) in [4]. The GI50 is 1.82 µM (inactive) in [5]; 2.11 µM (inactive) in experiment [6]; 0.955 µM (active) in experiment [16]; 2.37 µM (inactive) in [17]; 0.989 µM (active) in experiment [7]; 0.718 µM (active) in experiment [8]. Also, the GI50 in experiment [9] is 1.05 µM (active); in experiment [18], 0.698 µM (active); in [10] it was 4.17 µM (inactive); in experiment [11] it was 2.88 µM (inactive); in experiment [12], 1.26 µM (inactive); in experiment [13] it was 1.86 µM (inactive).

In the case of `CC[C@H](C)C1=C(OC(C)=O)[N@+]2([O-])Oc3ccc(-c4c(OC(C)=O)c(OC(C)=O)c(-c5ccc(OC(C)=O)cc5)c(OC(C)=O)c4OC(C)=O)cc3O[C@]2([C@@H](C)CC)C(=O)N1OC(C)=O`, the GI50 in experiment [1] was 9.46 µM (inactive); in experiment [2], 15.5 µM; in experiment [3] it was 12.6 µM (inactive); in experiment [14] it was 17.9 µM (inactive); in experiment [15], 9.79 µM (inactive); in experiment [5], 15.2 µM (inactive). The GI50 was 15.6 µM (inactive) in experiment [6]; 17.6 µM (inactive) in experiment [16]; 16.6 µM (inactive) in [17]; 10.5 µM (inactive) in experiment [7]; 0.00766 µM (active) in experiment [8]; 12.7 µM (inactive) in experiment [9]. The GI50 in [18] is 17.5 µM (inactive); in [10], 13.7 µM (inactive); in experiment [11], 16.9 µM (inactive); in experiment [12] it was 38.3 µM (inactive); in experiment [13], 15.7 µM (inactive).

On to `COc1ccc(NC(=O)/C(O)=C/C(=O)c2ccccc2)cc1`, for which the GI50 in experiment [1] was > 10 µM (inactive); in experiment [2], more than 10 µM; in [3], 1.74 µM (inactive); in [15], > 10 µM (inactive); in experiment [4], > 10 µM (inactive); in [5], > 10 µM (inactive). Also, the GI50 in experiment [6], in experiment [17], in [7], in [8], in experiment [9] and in experiment [18] was > 10 µM (inactive) throughout. The GI50 in experiment [10], in experiment [11], in experiment [12] and in experiment [13] was > 10 µM (inactive) each time.

With `COc1cc(O)c2c(c1)C(=O)c1cc3c(c(O)c1C2=O)C(OC1OC(C)C(OC)C(O)C1OC)C(OC)C(C)(O)C3=O` (stereo not drawn), the GI50 in experiment [2] is 3.15 µM; in [19] it was 14.5 µM (inactive); in [3], 1.64 µM (inactive); in experiment [5], 2.39 µM (inactive); in [6], 3.67 µM (inactive); in [16], 2.59 µM (inactive). Also, the GI50 in [7] was 2.79 µM (inactive); in experiment [8] it was 5.02 µM (inactive); in experiment [9], 3.55 µM (inactive); in experiment [18] it was 5.58 µM (inactive); in [10], 4.28 µM (inactive); in experiment [11] it was 3.02 µM (inactive). In addition, the GI50 in experiment [13] is 5.86 µM (inactive).

`CN1CC[C@]2(C)c3ccc(O)cc3CC3CCCC1C32C` (stereo partly drawn): the GI50 in [1] is > 100 µM (inactive); in experiment [2], more than 100 µM; in experiment [3], > 100 µM (inactive); in experiment [4], > 100 µM (inactive); in experiment [5] it was > 100 µM (inactive); in [6] it was > 100 µM (inactive). Also, the GI50 in experiment [16], in experiment [7], in [8], in [9], in [10] and in experiment [11] was > 100 µM (inactive) throughout. In addition, the GI50 in [12] and in experiment [13] was > 100 µM (inactive) in each case.
